Measured values from PubChem BioAssay (NCI).
Values joined by “and” are separate entries in the source; they are usually repeats but may differ in a detail not shown here. Equal entries are not always repeated.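 All cell lines were grown in 96-well plates and treated with compound for 48 hours. GI50 = concentration required for 50% inhibition of growth. TGI is the concentration that stops growth completely.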

Columns and labels:
Test in all cases: growth of human tumour cells (NCI), 48 h
HT29 colon = system: HT29 colon
EKVX NSCLC = system: EKVX NSCLC
MOLT-4 leukemia = system: MOLT-4 leukemia
T-47D breast = system: T-47D breast
DU-145 prostate = system: DU-145 prostate
MCF7 breast = system: MCF7 breast
SF-539 CNS = system: SF-539 CNS
COLO 205 colon = system: COLO 205 colon
HL-60(TB) leukemia = system: HL-60(TB) leukemia
U251 CNS = system: U251 CNS

| Compound | TGI (HT29 colon) | TGI (EKVX NSCLC) | TGI (MOLT-4 leukemia) | TGI (T-47D breast) | TGI (DU-145 prostate) | TGI (MCF7 breast) | TGI (SF-539 CNS) [µM] | TGI (COLO 205 colon) [µM] | TGI (HL-60(TB) leukemia) [µM] | TGI (U251 CNS) [µM] | GI50 (T-47D breast) | GI50 (DU-145 prostate) [µM] | GI50 (MCF7 breast) | GI50 (EKVX NSCLC) [µM] | GI50 (MOLT-4 leukemia) | GI50 (HT29 colon) [µM] | GI50 (U251 CNS) [µM] | GI50 (SF-539 CNS) [µM] | GI50 (HL-60(TB) leukemia) [µM] |
| --- | --- | --- | --- | --- | --- | --- | --- | --- | --- | --- | --- | --- | --- | --- | --- | --- | --- | --- | --- |
| O=C(NN1C(=O)/C(=C/c2ccc(Cl)cc2)N=C1c1ccccc1)c1c(Cl)c(Cl)c(Cl)c(Cl)c1-c1nc2ccccc2[nH]1 | > 100 µM | > 100 µM | > 100 µM | 9.72 µM | 61.9 µM | 60.3 µM | > 100 | > 100 | 50.5 |  |  |  |  |  |  |  |  |  |  |
| COc1ccc(OC)c2sc(N3C(=O)/C(=C/c4ccccc4S)N=C3c3ccccc3)nc12 | > 100 µM | > 100 µM | 35 µM | > 100 µM | > 100 µM | 36.5 µM | 85.4 | > 100 | 79.3 | 73.8 |  |  |  |  |  |  |  |  |  |
| CC(=O)OCCC[C@@H]1C(=C(C)C)CCC2[C@@]1(C)CC[C@@]1(C)C[C@](C)(CCC=C(C)C)CC[C@]21C (stereo not given in full) | > 100 µM | > 100 µM | > 100 µM | > 100 µM | > 100 µM | > 100 µM | > 100 | > 100 | > 100 | > 100 |  |  |  |  |  |  |  |  |  |
| O=C1c2scnc2-c2nccc3c2c1nc1ccccc13 | > 19.9 µM | > 20.2 µM | > 100 µM | 1.7 µM | 3.14 µM | 1.03 µM | 1.54 | 2.68 |  |  |  |  |  |  |  |  |  |  |  |
| CC(=O)C1=C(O)C2(O)C(=O)c3c(c(C)c4ccc(C)c(O)c4c3O)CC2C(N)C1=O (stereo not given) | 12.3 µM | 12.2 µM | 8.86 µM | 30.5 µM | 14.7 µM | 18.3 µM | 14.8 | 3.34 | 5.07 | 7.82 | 2.33 µM | 2.41 | 2.84 µM |  |  |  |  |  |  |
| CCCCC1Cc2cc(OC)ccc2-c2nc3cc(OC)ccc3n21 (stereo not given) (tested in a mixture with another compound) | 22.5 µM | 25.2 µM | 37 µM | 53.8 µM | 30 µM | 33.5 µM | 29.7 | 18.7 | 34.9 | 28.3 |  |  |  |  |  |  |  |  |  |
| Cc1c(N)nc([C@H](CC(N)=O)NC[C@H](N)C(N)=O)nc1C(=O)N[C@H](C(=O)N[C@H](C)[C@@H](O)[C@H](C)C(=O)N[C@H](C(=O)NCCc1nc(-c2nc(C(=O)NCCC[S+](C)C)cs2)cs1)[C@@H](C)O)C(OC1OC(CO)C(O)C(O)C1OC1OC(CO)C(O)C(OC(N)=O)C1O)c1cnc[nH]1 (stereo not given in full) | 25 µM and 29 µM and > 100 µM | 22 µM and 25 µM | 13.1 µM and 2.22 µM and 4.41 µM | 24.8 µM and 14.8 µM and 45.9 µM | 20.2 µM and 5.4 µM and 30 µM | 22.5 µM and 25 µM and > 100 µM |  |  |  |  | 5.28 µM and 1.03 µM and 5.77 µM |  | 1.71 µM and 3.16 µM | 25 | 0.204 µM and 0.613 µM |  |  |  |  |
| COC1CCC(OS(C)(=O)=O)CO1 (stereo not given) | > 100 µM |  | > 100 µM |  |  |  | > 100 | > 100 | > 100 | > 100 |  |  |  |  |  |  |  |  |  |
| O=C(O)C(Cc1ccccc1)N1C(=O)c2ccccc2C1=O (stereo not given) | > 100 µM | > 100 µM | > 100 µM | > 100 µM | > 100 µM | > 100 µM | > 100 | > 100 | 10.8 | > 100 |  |  |  |  |  |  |  |  |  |
| CN1CCC23c4ccccc4NC1C21CCN(C)C3Nc2ccccc21 | > 375 µM | > 375 µM | > 165 µM |  |  | > 375 µM | > 375 | > 375 | 109 | > 375 |  |  |  |  |  |  |  |  |  |
| C[N+]1(C)C2CCC1CC(OC(=O)C(CO)c1ccccc1)C2 (stereo not given) | > 100 µM | > 100 µM | > 100 µM | > 100 µM | > 100 µM | > 100 µM | > 100 | > 100 |  | > 100 |  |  |  |  |  |  |  |  |  |
| O=C1CCC(NC(=O)Cc2ccc(O)cc2)C(=O)N1 (stereo not given) | > 2500 µM | > 2500 µM |  |  |  |  |  | > 2500 |  | > 2500 |  |  |  |  |  |  |  |  |  |
| CN1CCN(CCCOc2ccc3ncnc(Nc4ccc(Oc5cccc(C(F)(F)F)c5)c(Cl)c4)c3c2)CC1 | 3.63 µM | 3.4 µM | 4.8 µM | 4.02 µM | 3.49 µM | 3.06 µM | 3 |  | 4.52 | 3.2 | 1.39 µM | 1.66 | 1.38 µM | 1.16 | 1.83 µM | 1.13 | 1.54 | 1.6 | 1.89 |
| Cc1c(Cl)c(=O)oc2cc(OCC(=O)c3ccccc3)ccc12 | > 100 µM | > 100 µM | > 100 µM | > 100 µM | > 100 µM | > 100 µM | > 100 | > 100 | > 100 | > 100 |  |  |  |  |  |  |  |  |  |
| N=C(N)C(N=Nc1ccccc1)C(=N)N (stereo not given) | > 100 µM | > 100 µM | 99.3 µM | > 100 µM | > 100 µM | > 100 µM | 38.5 | > 100 | 54.2 | > 100 |  |  |  |  |  |  |  |  |  |
| Cc1nc(Cl)c(C)c(Cl)n1 | > 100 µM | > 50.9 µM | > 100 µM | > 100 µM | > 100 µM | > 100 µM | > 100 | > 100 | > 68.4 | > 100 |  |  |  |  |  |  |  |  |  |
| CCN(CC)/C(=C\Cl)Nc1ccccn1 | > 100 µM | > 100 µM | > 100 µM |  |  |  | > 100 | > 100 | > 100 | > 100 |  |  |  |  |  |  |  |  |  |
| CO[C@@]12C[C@@H](CNC(=O)c3cc(Br)c[nH]3)O[C@@H]1NC(=O)N2 | > 100 µM | > 100 µM |  | > 100 µM | > 100 µM | > 100 µM | > 100 | > 100 |  | > 100 |  |  |  |  |  |  |  |  |  |
